Drawing on ChEMBL document CHEMBL5291721, “A preclinical secondary pharmacology resource illuminates target-adverse drug reaction associations of marketed drugs” (Nat Commun, 2023), this text covers AC50 for 24 compounds.

For experiment [1], the target named is T1, Muscarinic acetylcholine receptor M1 (Homo sapiens, UniProt P11229).
T1 sequence (P11229 whole entry): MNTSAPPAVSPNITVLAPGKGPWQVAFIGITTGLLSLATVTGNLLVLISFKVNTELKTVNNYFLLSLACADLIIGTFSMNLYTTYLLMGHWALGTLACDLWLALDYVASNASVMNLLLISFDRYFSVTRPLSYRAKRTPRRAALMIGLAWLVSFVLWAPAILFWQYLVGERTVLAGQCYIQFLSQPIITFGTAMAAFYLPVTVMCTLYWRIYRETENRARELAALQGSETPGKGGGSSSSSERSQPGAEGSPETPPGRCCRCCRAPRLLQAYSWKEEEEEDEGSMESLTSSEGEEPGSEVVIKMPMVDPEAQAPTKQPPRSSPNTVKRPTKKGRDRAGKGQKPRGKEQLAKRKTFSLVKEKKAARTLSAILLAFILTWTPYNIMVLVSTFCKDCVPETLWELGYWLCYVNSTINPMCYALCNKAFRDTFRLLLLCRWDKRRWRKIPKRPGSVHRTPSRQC
Format: functional, cell-based.

For experiment [2], the target named is Histamine H2 receptor (Homo sapiens, UniProt P25021).
Chain of Histamine H2 receptor (P25021 whole entry): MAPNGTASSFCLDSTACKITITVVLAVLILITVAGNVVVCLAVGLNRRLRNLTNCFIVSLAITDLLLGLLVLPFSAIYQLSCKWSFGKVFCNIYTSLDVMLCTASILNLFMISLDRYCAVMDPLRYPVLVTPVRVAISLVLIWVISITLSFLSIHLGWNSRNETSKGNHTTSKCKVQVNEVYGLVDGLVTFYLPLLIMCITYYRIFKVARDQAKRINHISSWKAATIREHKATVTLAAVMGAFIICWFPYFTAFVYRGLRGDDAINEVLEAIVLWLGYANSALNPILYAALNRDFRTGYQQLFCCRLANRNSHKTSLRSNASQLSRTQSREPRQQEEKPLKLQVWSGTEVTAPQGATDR
Experiment [3] addresses 5-hydroxytryptamine receptor 2B (Homo sapiens, UniProt P41595).
Experiment [4] addresses Neurotensin receptor type 1 (Homo sapiens, UniProt P30989).
Experiment [5] addresses T2, Progesterone receptor (Homo sapiens, UniProt P06401).
T2 sequence (P06401 whole entry): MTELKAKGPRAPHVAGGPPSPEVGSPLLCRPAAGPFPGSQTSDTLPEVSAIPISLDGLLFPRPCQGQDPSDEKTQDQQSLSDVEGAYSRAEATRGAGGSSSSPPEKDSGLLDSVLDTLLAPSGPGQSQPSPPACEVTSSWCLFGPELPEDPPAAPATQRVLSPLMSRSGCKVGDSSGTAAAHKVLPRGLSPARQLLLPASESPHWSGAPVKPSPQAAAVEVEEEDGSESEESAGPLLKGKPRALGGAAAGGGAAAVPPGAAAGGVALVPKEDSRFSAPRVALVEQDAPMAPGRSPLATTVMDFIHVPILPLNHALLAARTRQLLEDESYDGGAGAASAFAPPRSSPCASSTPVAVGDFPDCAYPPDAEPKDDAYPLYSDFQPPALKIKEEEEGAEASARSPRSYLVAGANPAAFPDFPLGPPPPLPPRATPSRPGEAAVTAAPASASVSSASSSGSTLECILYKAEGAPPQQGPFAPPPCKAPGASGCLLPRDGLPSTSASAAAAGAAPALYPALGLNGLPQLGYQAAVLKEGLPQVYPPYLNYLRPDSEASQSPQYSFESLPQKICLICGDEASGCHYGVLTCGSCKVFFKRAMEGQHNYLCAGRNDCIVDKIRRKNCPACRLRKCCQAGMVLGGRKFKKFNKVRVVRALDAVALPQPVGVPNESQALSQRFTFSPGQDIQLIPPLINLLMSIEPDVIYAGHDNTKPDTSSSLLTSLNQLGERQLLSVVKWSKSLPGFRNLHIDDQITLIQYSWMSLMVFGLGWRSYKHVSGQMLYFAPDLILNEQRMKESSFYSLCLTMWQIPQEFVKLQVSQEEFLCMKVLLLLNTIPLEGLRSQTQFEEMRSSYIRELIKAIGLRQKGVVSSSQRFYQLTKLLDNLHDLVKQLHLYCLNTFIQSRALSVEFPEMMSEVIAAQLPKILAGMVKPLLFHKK

For experiment [6], the target named is T3, Alpha-2A adrenergic receptor (Homo sapiens, UniProt P08913).
T3 sequence (P08913 whole entry): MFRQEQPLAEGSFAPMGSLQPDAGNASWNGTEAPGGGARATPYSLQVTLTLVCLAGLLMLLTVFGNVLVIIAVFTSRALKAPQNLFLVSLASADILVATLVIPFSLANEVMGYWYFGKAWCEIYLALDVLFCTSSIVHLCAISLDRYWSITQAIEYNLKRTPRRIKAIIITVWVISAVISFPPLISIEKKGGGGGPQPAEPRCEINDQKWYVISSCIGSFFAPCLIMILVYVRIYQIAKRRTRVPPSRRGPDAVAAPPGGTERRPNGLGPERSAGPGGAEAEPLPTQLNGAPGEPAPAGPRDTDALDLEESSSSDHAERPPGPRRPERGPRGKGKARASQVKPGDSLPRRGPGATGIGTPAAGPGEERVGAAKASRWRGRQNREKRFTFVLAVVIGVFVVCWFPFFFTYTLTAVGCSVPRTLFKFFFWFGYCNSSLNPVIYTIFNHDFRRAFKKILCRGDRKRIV
Also: assay procedure not described here.

Chain of Neurotensin receptor type 1 (P30989 whole entry): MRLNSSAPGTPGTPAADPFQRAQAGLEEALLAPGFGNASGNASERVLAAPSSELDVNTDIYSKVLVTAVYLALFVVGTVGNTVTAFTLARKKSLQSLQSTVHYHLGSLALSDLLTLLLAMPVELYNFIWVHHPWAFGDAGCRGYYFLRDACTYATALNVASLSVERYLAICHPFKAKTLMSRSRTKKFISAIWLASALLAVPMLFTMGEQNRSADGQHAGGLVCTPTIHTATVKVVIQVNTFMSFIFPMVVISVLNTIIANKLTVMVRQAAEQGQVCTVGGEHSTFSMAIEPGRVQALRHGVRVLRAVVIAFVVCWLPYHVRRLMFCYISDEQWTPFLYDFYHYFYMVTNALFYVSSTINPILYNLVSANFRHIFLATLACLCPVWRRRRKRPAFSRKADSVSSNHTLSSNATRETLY
Chain of 5-hydroxytryptamine receptor 2B (P41595 whole entry): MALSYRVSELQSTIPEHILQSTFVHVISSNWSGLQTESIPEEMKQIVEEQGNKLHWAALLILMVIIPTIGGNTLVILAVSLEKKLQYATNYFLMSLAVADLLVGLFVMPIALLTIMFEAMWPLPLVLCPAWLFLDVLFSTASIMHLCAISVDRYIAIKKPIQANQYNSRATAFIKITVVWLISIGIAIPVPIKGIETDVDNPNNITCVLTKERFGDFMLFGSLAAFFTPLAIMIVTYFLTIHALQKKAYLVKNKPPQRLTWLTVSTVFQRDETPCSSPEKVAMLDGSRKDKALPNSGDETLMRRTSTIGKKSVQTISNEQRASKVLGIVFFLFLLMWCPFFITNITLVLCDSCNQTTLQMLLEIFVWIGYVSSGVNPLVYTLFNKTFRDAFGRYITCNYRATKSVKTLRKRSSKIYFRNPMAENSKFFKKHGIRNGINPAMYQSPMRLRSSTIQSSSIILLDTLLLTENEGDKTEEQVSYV

In general, AC50 refers to the midpoint of the concentration-response curve, whichever way the signal moves. Low readings indicate activity at low concentration, high ones activity only at high concentration. Take `CC(C(=O)O)c1ccc(N2CC=CC2)c(Cl)c1` (stereo not given) [PIRPROFEN]: the AC50 in experiment [1] is 28.7 µM; in experiment [2], over 10 µM; in experiment [3], over 10 µM; in experiment [4], over 30 µM; in experiment [5] it was over 30 µM; in experiment [6], over 10 µM.
In experiment [1], `CC(=O)OC[C@H]1O[C@@H](n2ccc(=O)[nH]c2=O)[C@H](OC(C)=O)[C@@H]1OC(C)=O` [URIDINE TRIACETATE] came in with an AC50 of over 30 µM.
As to `Oc1ncnc2[nH]ncc12` [ALLOPURINOL], the AC50 is over 10 µM in experiment [2]; over 10 µM in experiment [3]; over 30 µM in experiment [4]; over 30 µM in experiment [5]; over 10 µM in experiment [6].
With `CCC(=O)c1c(O)cc(O)cc1O` [FLOPROPIONE], the AC50 in experiment [1] was over 30 µM.
In experiment [1], `O=C1c2c(O)c(=O)ccn2N([C@@H]2c3ccccc3SCc3c2ccc(F)c3F)[C@@H]2COCCN12` [BALOXAVIR] yielded an AC50 of over 30 µM.
As to `CCOC(=O)N[C@@H]1CC[C@@H]2[C@@H](C1)C[C@H]1C(=O)O[C@H](C)[C@H]1[C@H]2/C=C/c1ccc(-c2cccc(F)c2)cn1` [VORAPAXAR], half-maximal activity in experiment [1] (AC50) was put at 26.3 µM.
Take `CC(=O)Oc1c(C)cc(OCC(O)CNC(C)C)c(C)c1C` (stereo not given) [METIPRANOLOL]: the AC50 in experiment [1] was over 30 µM.
On to `O=C1[C@H](CC[C@H](O)c2ccc(F)cc2)[C@@H](c2ccc(O)cc2)N1c1ccc(F)cc1` [EZETIMIBE], for which the AC50 in experiment [1] was determined as 4.55 µM.
For the compound `CCO/N=C(\C(=O)N[C@@H]1C(=O)N2C(C(=O)[O-])=C(Sc3nc(-c4cc[n+](C)cc4)cs3)CS[C@H]12)c1nsc(N)n1` [CEFTAROLINE], the AC50 in experiment [1] is over 30 µM.
`C[N+](C)(C)CCCCCCCCCC[N+](C)(C)C` [DECAMETHONIUM]: the AC50 in experiment [1] was over 30 µM.
As for `CCN(CC)CCNC(=O)c1cc(Cl)c(N)cc1OC` [METOCLOPRAMIDE], the AC50 in experiment [2] was over 10 µM; in experiment [3], 0.314 µM; in experiment [4], over 30 µM; in experiment [5], over 30 µM; in experiment [6] it was 7.32 µM.
`CN(C)CCCN1c2ccccc2CCc2ccc(Cl)cc21` [CLOMIPRAMINE] yielded an AC50 in experiment [6] of over 10 µM.
With `CN(CCOc1ccc(NS(C)(=O)=O)cc1)CCc1ccc(NS(C)(=O)=O)cc1` [DOFETILIDE], the half-maximal activity concentration (AC50) in experiment [1] is over 30 µM; in experiment [2] it was over 10 µM; in experiment [3], over 10 µM; in experiment [4], over 30 µM; in experiment [5], over 30 µM; in experiment [6] it was over 10 µM.
In experiment [1], `O=C1c2ccccc2C(=O)C1C(=O)C(c1ccccc1)c1ccccc1` [DIPHENADIONE] yielded an AC50 of over 3 µM.
On the same count and under the same terms, then `CC(C)OC(=O)[C@H](C)N[P@](=O)(OC[C@H]1O[C@@H](n2ccc(=O)[nH]c2=O)[C@](C)(F)[C@@H]1O)Oc1ccccc1` [SOFOSBUVIR], with over 30 µM.
In the case of `NC1=NC(=O)C(c2ccccc2)O1` (stereo not given) [PEMOLINE], the AC50 in experiment [5] was over 30 µM.
As for `Cc1ccc(O)c2ncccc12` [TILIQUINOL], the AC50 in experiment [1] was over 30 µM.
Turning to `CN(C)C(=O)Oc1ccc[n+](C)c1` [PYRIDOSTIGMINE], the AC50 in experiment [1] was over 30 µM.
In turn, `O=C(COc1ccc(Cl)cc1)N1CCN(Cc2ccc3c(c2)OCO3)CC1` [FIPEXIDE] came in with an AC50 in experiment [1] of 6.27 µM.
On to `CC(N/C(=N\C#N)Nc1ccncc1)C(C)(C)C` (stereo not given) [PINACIDIL ANHYDROUS], for which the AC50 in experiment [1] was over 30 µM.
In the case of `CC(C)NCC(O)COc1ccc(COCCOC(C)C)cc1` (stereo not given) [BISOPROLOL], the half-maximal activity concentration (AC50) in experiment [2] is over 10 µM; in experiment [3] it was over 10 µM; in experiment [4] it was over 30 µM; in experiment [5], over 30 µM; in experiment [6] it was over 10 µM.
With `C(=N\NC1=NCCN1)/c1c2ccccc2c(/C=N/NC2=NCCN2)c2ccccc12` [BISANTRENE], the AC50 in experiment [1] is 6.37 µM.
On to `CCOC(=O)c1ccc(O)cc1` [ETHYLPARABEN], for which, in experiment [1], the AC50 was over 30 µM.
Consider `CCC[C@@H]1C[C@@H](C(=O)N[C@@H]([C@H]2O[C@H](SC)[C@H](O)[C@@H](O)[C@H]2O)[C@H](C)Cl)N(C)C1` [CLINDAMYCIN], for which the AC50 in experiment [2] is over 10 µM; in experiment [3], over 10 µM; in experiment [4], over 30 µM; in experiment [5] it was over 30 µM; in experiment [6], over 10 µM.
